The test system of assay [1] is HMPV clinical isolate A2 strain TN 94-49. In words: HMPV antiviral assay, Method 2 (LLC-MK2 cells with CP-100-356, ATP-Lite). The class given is cell-based. The settings on record: human metapneumovirus. In a few lines:
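LLC-MK2 rhesus kidney cells (5,000/well) infected in suspension with HMPV A2 TN 94-49 at MOI 0.16, in serum-free medium with final 2 μg/mL TPCK-trypsin and 2 μM CP-100-356. Compounds tested in duplicate from 200 nM, 2.5-fold, 10 points; 7 days at 37 °C. Cell health by ATP-Lite luminescence; EC50 by four-parameter fit.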

The subject of assay [2] is genotype A, “Long” strain RSV. In words: RSV-A assay (CPE, ATPlite readout in Hep-2 cells). It is filed as cell-based, Human respiratory syncytial virus. The note with it: human respiratory syncytial virus, activity class. The text has this: Hep-2 cells, (originally derived from tumors grown in irradiated-cortisonised weanling rats that had been injected with epidermoid carcinoma tissue from the larynx of a person, but later found to be indistinguishable from HeLa cells by PCR DNA analysis), were used for the culturing of genotype A, “Long” strain RSV. Flasks were inoculated with RSV and viral stocks were collected once cytopathic effect (CPE) was greater than 90%. Viral stocks in 25% sucrose media were snap frozen using liquid nitrogen to increase viral stability. Viral stock titers were quantified by tissue culture infectious dose 50% (TCID50) using 8,000 cells per well and 3-fold viral dilutions across a 96-well plate, cultured for 4 days. Viral stock titers were also quantified by a plaque forming unit assay, as described elsewhere.
Following extensive parameter testing, the final assay is run as follows: Hep-2 cells are seeded into the inner 60 wells of a 96-well plate at 8,000 cells per well in a volume of 50 μL using Growth Media (DMEM without phenol red, 1% L-Glut, 1% Penn/Strep, 1% nonessential amino acids, 10% heat-inactivated FBS). 2-fold serial dilutions of control and test compounds are added to the wells in duplicate in a total volume of 25 μL. Viral stock is then added to the wells at a multiplicity of infection (MOI) of 0.1 in a volume of 25 μL, bringing the total volume of each well to 100 μL. The MOI is calculated using the PFU/mL, or TCID50 if unavailable. Each 96-well plate has a control column of 6 wells with cells and virus but no compound (negative control, max CPE), a column with cells but no compound or virus (positive control, minimum CPE), and a column with no cells or virus or compound (background plate/reagent control). The control wells with cells but no virus are given an additional 25 μL of growth media containing an equal quantity of sucrose as those wells receiving the viral stock in order to keep consistent in media and volume conditions. The outer wells of the plate are filled with 125 μL of moat media (DMEM, 1% Penn/Strep) to act as a thermal and evaporative moat around the test wells. Following a 5-day incubation period, the plates are read using ATPlite (50 uL added per well), which quantifies the amount of ATP (a measure of cell health) present in each well. Assay plates are read using the Envision luminometer. […] EC50 ranges are as follows: A<0.2 μM; B>0.2 μM.
For orientation: Cellular ATP, detected with luciferase, serves as a proxy for viable cell number.

Setting [3] is: hMPV A2 TN/94-49, LLC-MK2 cells with CP-100-356, Method 2.
[4] abbreviates: 168 h, hMPV A2 TN/94-49, LLC-MK2 cells with 4 μM CP-100-356, 7 days, ATP-Lite.

What is called EC50 is the midpoint of the concentration-response curve. Read a low EC50 as an effect from little substance.

The structures appear in SMILES notation.

`COc1cc(C(=O)NC[C@](O)(c2cc3c(c(-c4ccc(F)c(Cl)c4Cl)n2)OC[C@]3(C)C(N)=O)C2CC2)cc2cc(C3CC3)nn12` [Example 324]: the EC50 in assay [1] (setting [3]) and in assay [2] was less than 200 nM throughout.
In the case of `COc1cc(C(=O)NC[C@](O)(c2cc3c(c(-c4ccnc(C(F)(F)F)c4Cl)n2)OC[C@]3(C)C(N)=O)C(F)(F)F)cc2oc(C3CC3)nc12` [Example 536], the EC50 in assay [1] (setting [3]) and in assay [2] was less than 200 nM throughout.
`COc1cc(C(=O)N(C)C[C@](O)(c2cc3c(c(-c4ccc(F)c(Cl)c4)n2)OC[C@]3(C(N)=O)C(F)F)C2CC2)cc2cn(C3CC3)nc12` [Example 350]: the EC50 was more than 200 nM in assay [1] (setting [3]) and less than 200 nM in assay [2].
The like results for `COc1cc(C(=O)NC[C@@](O)(c2cccc(F)c2)c2cc3c(c(-c4ccnc(F)c4Cl)n2)OC[C@]3(C)C(N)=O)cc2cn(C3(F)CC3)nc12` [Example 401] were, in that order, less than 200 nM and less than 200 nM.
The like results for `COc1cc(C(=O)NC[C@](O)(c2cc3c(c(-c4ccc5c(c4Cl)OC(F)(F)O5)n2)OC[C@]3(C)C(N)=O)C2CC2)cc2cc(Cl)cnc12` [Example 105] were, in that order, less than 200 nM and less than 200 nM.
The like results for `COc1cc(C(=O)NC[C@](O)(c2cc3c(c(-c4cc(C(F)(F)F)ncc4F)n2)OC[C@]3(C)C(N)=O)C2CC2)cc2cn(C3CC3)nc12` [Example 347] were, in that order, less than 200 nM and less than 200 nM.
For the compound `CNCC1([C@](O)(CNC(=O)c2cc(OC)c3nn(C4CC4)cc3c2)c2cc3c(c(-c4cc(Cl)c(F)cc4F)n2)OC[C@]3(C)C(N)=O)CC1` [Example 211], the EC50 in assay [1] (setting [3]) and in assay [2] was more than 200 nM in each case.
On to `COc1cc(C(=O)NC[C@](O)(c2cc3c(c(-c4ccnc(C(F)(F)F)c4Cl)n2)OC[C@]3(C)C(N)=O)C2CC2)cc2oc(C3CC3)nc12` [Example 762], for which the EC50 in assay [1] (setting [4]) and in assay [2] was less than 200 nM in each case.
`COc1cc(C(=O)NC[C@](O)(c2cc3c(c(-c4ccnc(C(F)F)c4Cl)n2)OC[C@]3(C)C(N)=O)C2CC2)cc2oc(C3CC3)nc12` [Example 787]: the EC50 in assay [1] (setting [4]) and in assay [2] was less than 200 nM throughout.
As to `COc1cc(C(=O)NC[C@](O)(c2cc3c(c(-c4cc(C(F)(F)F)c(F)cc4F)n2)OC[C@]3(C)C(N)=O)C2CC2)cc2cn(C3(F)CC3)nc12` [Example 309], the EC50 in assay [1] (setting [3]) and in assay [2] was less than 200 nM throughout.
In the case of `C[C@]1(C(N)=O)COc2c1cc([C@@](O)(CNC(=O)c1cc(Cl)c3[nH]ncc3c1)C1CC1)nc2-c1cc(F)c(F)cc1F` [Example 119], the values for the EC50 in assay [1] (setting [3]) and in assay [2] were more than 200 nM and less than 200 nM, respectively.
For `COc1cc(C(=O)NC[C@](O)(c2cc3c(c(-c4ccnc(F)c4Cl)n2)OC[C@]3(C)C(N)=O)C(F)(F)F)cc2cn(C(F)F)nc12` [Example 380], the EC50 in assay [1] (setting [3]) and in assay [2] was less than 200 nM in each case.
Turning to `COc1cc(C(=O)NC[C@](O)(c2cc3c(c(-c4cncc(OC(F)F)c4Cl)n2)OC[C@]3(C)C(N)=O)C2CC2)cc2cn(C(F)F)nc12` [Example 742], the EC50 in assay [1] (setting [4]) and in assay [2] was less than 200 nM throughout.
With `COc1cc(C(=O)NC[C@](O)(c2cc3c(c(-c4ccnc(C(F)F)c4Cl)n2)OC[C@]3(C)C(N)=O)C(F)(F)F)cc2cn(C3CC3)nc12` [Example 795], the EC50 in assay [1] (setting [4]) and in assay [2] was less than 200 nM throughout.
In the case of `COc1cc(C(=O)NC[C@@](O)(c2cccc(F)c2)c2cc3c(c(-c4ccnc(C)c4Cl)n2)OC[C@]3(C)C(N)=O)cc2cn(C3CC3)nc12` [Example 378], the 50% effective concentration (EC50) in assay [1] (setting [3]) and in assay [2] was less than 200 nM in each case.
On to `COc1nccc(-c2nc([C@@](O)(CNC(=O)c3cc(OC4CC4)c4nn(C5CC5)cc4c3)C3CC3)cc3c2OC[C@]3(C)C(N)=O)c1Cl` [Example 585], for which the EC50 in assay [1] (setting [3]) and in assay [2] was less than 200 nM throughout.
As to `COc1cc(C(=O)NC[C@](O)(c2cc3c(c(-c4ccnc(C5CC5)c4Cl)n2)OC[C@]3(C)C(N)=O)C2CC2)cc2cn(C3CC3)nc12` [Example 721], the EC50 in assay [1] (setting [4]) and in assay [2] was less than 200 nM throughout.
Regarding `C[C@]1(C(N)=O)COc2c1cc([C@@](O)(CNC(=O)c1cc(OC3CC3)n3nc(C4CC4)cc3c1)C1CC1)nc2-c1ccc(F)c(Cl)c1Cl` [Example 325], the EC50 in assay [1] (setting [3]) and in assay [2] was less than 200 nM each time.
As to `COc1cc(C(=O)NC[C@@](O)(c2cccc(F)c2)c2cc3c(c(-c4cc(F)cnc4Cl)n2)OC[C@]3(C)C(N)=O)cc2cn(C3(F)CC3)nc12` [Example 403], the results for the EC50 in assay [1] (setting [3]) and in assay [2] were more than 200 nM and less than 200 nM, respectively.
In the case of `COc1cc(C(=O)NC[C@](O)(c2cc3c(c(-c4ccnc(C(F)(F)F)c4Cl)n2)OC[C@]3(C)C(N)=O)C2CC2)cc2cn(C3(F)CC3)nc12` [Example 760], the EC50 in assay [1] (setting [4]) and in assay [2] was less than 200 nM throughout.
As to `COc1cc(C(=O)NC[C@](O)(c2cc3c(c(-c4ccc(F)c(Cl)c4Cl)n2)OC[C@]3(C)C(N)=O)C2CC2)cc2oc(C3CC3)nc12` [Example 318], the EC50 in assay [1] (setting [3]) and in assay [2] was less than 200 nM each time.
With `COc1nccc(-c2nc([C@@](O)(CNC(=O)c3cc(OC)c4nc(C5CC5)oc4c3)C3CC3)cc3c2OC[C@]3(C)C(N)=O)c1Cl` [Example 745], the EC50 in assay [1] (setting [4]) and in assay [2] was less than 200 nM throughout.
For the compound `COc1cc(C(=O)NC[C@](O)(c2cc3c(c(-n4ccc5c(F)cccc54)n2)OC[C@]3(C)C(N)=O)C(F)(F)F)cc2cn(C3CC3)nc12` [Example 851], the EC50 in assay [1] (setting [4]) and in assay [2] was less than 200 nM throughout.
For `COc1nccc(-c2nc([C@@](O)(CNC(=O)c3cc(OC)c4nn(C(F)F)cc4c3)C3CC3)cc3c2OC[C@]3(C)C(N)=O)c1Cl` [Example 788], the EC50 in assay [1] (setting [4]) and in assay [2] was less than 200 nM each time.
Regarding `COc1cc(C(=O)NCC(O)(c2cccc(F)c2)c2cc3c(c(-c4cc(C(F)(F)F)ncc4Cl)n2)OC[C@]3(C)C(N)=O)cc2cn(C3CC3)nc12` (some centres unmarked) [Example 379], the results for the EC50 in assay [1] (setting [3]) and in assay [2] were more than 200 nM and less than 200 nM, respectively.
On the same counts, the results for `COc1cc(C(=O)NC[C@](O)(c2cc3c(c(-c4cc(F)c(F)cc4F)n2)OC[C@]3(C)C(N)=O)C2CC(F)(F)C2)cc2oc(C3CC3)nc12` [Example 124] are less than 200 nM and less than 200 nM.
For the compound `COc1cc(C(=O)NC[C@](O)(c2cc3c(c(-n4ccc5c(F)cccc54)n2)OC[C@]3(C)C(N)=O)C2CC2)cc2oc(C3CC3)nc12` [Example 778], the EC50 in assay [1] (setting [4]) and in assay [2] was less than 200 nM in each case.
In the case of `COC1=CC(C(=O)NC[C@](O)(c2cc3c(c(-c4ccnc(C(F)(F)F)c4F)n2)OC[C@]3(C)C(N)=O)C2CC2)=CC2OC(C3CC3)=NC12` (some centres unmarked) [Example 801], the EC50 in assay [1] (setting [4]) and in assay [2] was less than 200 nM throughout.
For the compound `COc1cc(C(=O)NC[C@](O)(c2cc3c(c(-c4ccnc(C(F)(F)F)c4Cl)n2)OC[C@]3(C)C(N)=O)C2CC2)cc2cn(C(F)F)nc12` [Example 758], the EC50 in assay [1] (setting [4]) and in assay [2] was less than 200 nM each time.
With `COc1cc(C(=O)NC[C@](O)(c2cc3c(c(-c4ccnc(C(F)(F)F)c4F)n2)OC[C@]3(C)C(N)=O)C2CC2)cc2cn(C3(F)CC3)nc12` [Example 800], the EC50 in assay [1] (setting [4]) and in assay [2] was less than 200 nM each time.
For the compound `COc1cc(C(=O)NC[C@@](O)(C#CC(C)(C)O)c2cc3c(c(-c4cc(Cl)c(F)cc4F)n2)OC[C@]3(C)C(N)=O)cc2cn(C3CC3)nc12` [Example 477], the EC50 in assay [1] (setting [3]) is more than 200 nM; in assay [2] it was less than 200 nM.

The values above are taken from patent publication US20240368174A1, “Antiviral Heterocyclic Compounds” (Enanta Pharmaceuticals, Inc., priority 2023, published 2024).
